Data: ChEMBL document CHEMBL1201862, “PubChem BioAssay data set” (2004)
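Where inhibition never reached the appropriate level, the endpoint shown equals the highest concentration tested. Otherwise, values were interpolated linearly from a five-concentration, 48-hour dose response in 96-well plates. GI50 marks 50% less growth.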 Calls of active or inactive are those of the source. Rule as the data show it: active = GI50 up to about 1.1 µM and inactive = higher. Numbered stars: 1 amine (or outer) side, 2 acyl side, 3 side chain; on linkers, the order of the positions; unused ones are H or OH. Square brackets hold non-standard residues; d marks the D form. Peptide text beside a SMILES is read from it. X55 = CC[C@H](C)[C@H](OC(=O)[C@@H](C)[C@@H](CC)N[*:1])C(=O)[*:2]; X31 = C[C@H](N[*:1])C(=O)C(C)(C)C(=O)[*:2]; NMeY = CN[C@@H](Cc1ccc(O)cc1)C(=O)O; NMeL = CN[C@@H](CC(C)C)C(=O)O; NMeV = CN[C@H](C(=O)O)C(C)C

Experiments:
Assay in all cases: growth of human tumour cells (NCI), 48 h
DMS-114 = test system: DMS-114
HOP-18 = test system: HOP-18
DMS-273 = test system: DMS-273
XF498 = test system: XF498
SNB-78 = test system: SNB-78
M19-MEL = test system: M19-MEL
DLD-1 = test system: DLD-1
LXFL 529 = test system: LXFL 529
RXF 631 = test system: RXF 631

| Compound | GI50 (DMS-114) | GI50 (HOP-18) | GI50 (DMS-273) | GI50 (XF498) | GI50 (SNB-78) | GI50 (M19-MEL) | GI50 (DLD-1) | GI50 (LXFL 529) | GI50 (RXF 631) |
| --- | --- | --- | --- | --- | --- | --- | --- | --- | --- |
| Cc1cc(C)nc(NS(=O)(=O)c2ccc(Nc3c4ccccc4nc4c(C(=O)Nc5ccc(S(=O)(=O)N=C(N)N)cc5)ccc(Cl)c34)cc2)n1 | 21.7 µM (inactive) | 18.7 µM (inactive) | 32.1 µM (inactive) | 24 µM (inactive) | 33.7 µM (inactive) | 26 µM (inactive) | 33.1 µM (inactive) | 25.8 µM (inactive) | – |
| CC(C)(C)N/N=N/c1cn(C2OC(CO)C(O)C2O)c(=O)[nH]c1=O (configuration not stated) | 40.3 µM (inactive) | > 100 µM (inactive) | > 100 µM (inactive) | – | > 100 µM (inactive) | > 100 µM (inactive) | 43.3 µM (inactive) | > 100 µM (inactive) | – |
| CC1=NN(C(=O)c2ccc(Cl)cc2)C(=O)/C1=C/c1ccco1 | > 100 µM (inactive) | – | – | > 100 µM (inactive) | 46.1 µM (inactive) | > 100 µM (inactive) | > 100 µM (inactive) | > 100 µM (inactive) | – |
| Cc1cc(NS(=O)(=O)c2ccc(NC(=O)c3cccc4c(Nc5ccc(S(=O)(=O)Nc6cc(C)on6)cc5)c5ccccc5nc34)cc2)no1 | 35.2 µM (inactive) | 19.4 µM (inactive) | > 100 µM (inactive) | 42.3 µM (inactive) | 35.1 µM (inactive) | 35.8 µM (inactive) | > 100 µM (inactive) | 24.7 µM (inactive) | – |
| NC(=O)N/N=C1/CCCC/C1=C\c1ccccc1 | > 100 µM (inactive) | > 100 µM (inactive) | > 100 µM (inactive) | – | > 100 µM (inactive) | > 100 µM (inactive) | > 100 µM (inactive) | > 100 µM (inactive) | > 100 µM (inactive) |
| Cc1cc2c(c3c1c1ccccc1n3C)C(=O)c1ccccc1C2=O | > 100 µM (inactive) | – | > 100 µM (inactive) | 60.1 µM (inactive) | > 100 µM (inactive) | > 100 µM (inactive) | > 100 µM (inactive) | > 100 µM (inactive) | > 100 µM (inactive) |
| CC[C@H](C)[C@@H]1OC(=O)[C@@H](C)[C@@H](CC)NC(=O)[C@H](C)NC(=O)C(C)(C)C(=O)[C@H](C)NC(=O)[C@H](Cc2ccc(OC)cc2)N(C)C(=O)[C@H](C(C)C)N(C)C(=O)CNC(=O)[C@H](CC(C)C)N(C)C(=O)CNC1=O [DOLASTATIN 11] (cyclo(A[X55]G[NMeL]G[NMeV][NMeY](Me)[X31])) | < 0.0203 µM (active) | < 0.0118 µM (active) | 0.01 µM (active) | 0.0248 µM (active) | 0.0514 µM (active) | 0.344 µM (active) | < 0.0361 µM (active) | < 0.0166 µM (active) | – |
| N#C/C(=C\c1ccccc1)C(NO)Nc1ccccc1 (configuration not stated) | – | > 100 µM (inactive) | > 100 µM (inactive) | – | 83.2 µM (inactive) | > 100 µM (inactive) | > 100 µM (inactive) | 60.3 µM (inactive) | – |
| Cn1cc(NC(=O)c2cc(NC(=O)CCCCCCCCCC(=O)Nc3cc(C(=O)Nc4cc(C(=O)NCCC(=N)N)n(C)c4)n(C)c3)cn2C)cc1C(=O)NCCC(=N)N | 84.9 µM (inactive) | 35.3 µM (inactive) | 33.2 µM (inactive) | 32.9 µM (inactive) | 37.2 µM (inactive) | 34.1 µM (inactive) | 34.2 µM (inactive) | 24.5 µM (inactive) | – |
| COc1ccc(C2CCC(Cl)(OC)CC2C=O)cc1 (configuration not stated) | 27.5 µM (inactive) | 68.9 µM (inactive) | 53.7 µM (inactive) | – | – | 32.1 µM (inactive) | 91.4 µM (inactive) | > 100 µM (inactive) | – |
| C/C=C/C1(C)/C(=N\O)C(C)(CCC)C(=O)N1O (configuration not stated) | > 100 µM (inactive) | – | > 100 µM (inactive) | > 100 µM (inactive) | > 100 µM (inactive) | > 100 µM (inactive) | > 100 µM (inactive) | > 100 µM (inactive) | – |
| CC1=C(C(=O)Nc2ccc(Cl)c(C(=O)OC(C)C)c2)SCCO1 | – | 81.3 µM (inactive) | 55.6 µM (inactive) | 62.4 µM (inactive) | 99.5 µM (inactive) | 26.6 µM (inactive) | 74 µM (inactive) | – | – |
| O=C(CC(=O)C1CCOC1=O)C(=O)Nc1ccc(Cl)cc1Cl (configuration not stated) | > 100 µM (inactive) | – | > 100 µM (inactive) | > 100 µM (inactive) | > 100 µM (inactive) | > 100 µM (inactive) | > 100 µM (inactive) | > 100 µM (inactive) | – |
| O=C(Nc1nccs1)c1cc(C2=CC=CC([N+](=O)[O-])C=C2)nc(S)n1 (configuration not stated) | > 100 µM (inactive) | > 100 µM (inactive) | > 100 µM (inactive) | – | > 100 µM (inactive) | > 100 µM (inactive) | – | > 100 µM (inactive) | – |
| CCCCCCCCCCCCCS(=O)(=O)O | > 100 µM (inactive) | 3.08 µM (inactive) | – | > 100 µM (inactive) | > 100 µM (inactive) | > 100 µM (inactive) | > 100 µM (inactive) | > 100 µM (inactive) | > 100 µM (inactive) |
